Laboratory results as given in PubChem BioAssay (NCI).
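Tested at 5 concentrations; 48 h exposure; 96-well plates; endpoints linearly interpolated, else capped at highest concentration. TGI denotes the concentration required for complete inhibition of growth.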

Legend:
Assay in all cases: inhibition of tumour cell growth, NCI panel, 48 h
SK-MEL-28 melanoma = test system: SK-MEL-28 melanoma
SR leukemia = test system: SR leukemia
SW-620 colon = test system: SW-620 colon
IGROV1 ovarian = test system: IGROV1 ovarian
HCT-116 colon = test system: HCT-116 colon
HT29 colon = test system: HT29 colon
UO-31 renal = test system: UO-31 renal
MDA-MB-231 breast = test system: MDA-MB-231 breast
MALME-3M melanoma = test system: MALME-3M melanoma
HCC-2998 colon = test system: HCC-2998 colon
UACC-62 melanoma = test system: UACC-62 melanoma
HOP-92 NSCLC = test system: HOP-92 NSCLC
MOLT-4 leukemia = test system: MOLT-4 leukemia
HOP-62 NSCLC = test system: HOP-62 NSCLC
MCF7 breast = test system: MCF7 breast
NCI-H522 lung = test system: NCI-H522 lung
SF-268 CNS = test system: SF-268 CNS
NCI-H23 lung = test system: NCI-H23 lung
MDA-MB-435 = test system: MDA-MB-435
EKVX NSCLC = test system: EKVX NSCLC
SK-OV-3 ovarian = test system: SK-OV-3 ovarian
A549 NSCLC = test system: A549 NSCLC
OVCAR-4 ovarian = test system: OVCAR-4 ovarian
SK-MEL-5 melanoma = test system: SK-MEL-5 melanoma
HCT-15 colon = test system: HCT-15 colon
CAKI-1 renal = test system: CAKI-1 renal
SNB-19 CNS = test system: SNB-19 CNS
OVCAR-8 ovarian = test system: OVCAR-8 ovarian
K-562 leukemia = test system: K-562 leukemia
ACHN renal = test system: ACHN renal
NCI-H226 lung = test system: NCI-H226 lung
BT-549 breast = test system: BT-549 breast
HS 578T breast = test system: HS 578T breast
NCI-H460 lung = test system: NCI-H460 lung
CCRF-CEM leukemia = test system: CCRF-CEM leukemia
MDA-N = test system: MDA-N
OVCAR-5 ovarian = test system: OVCAR-5 ovarian
COLO 205 colon = test system: COLO 205 colon
RXF 393 renal = test system: RXF 393 renal
TK-10 renal = test system: TK-10 renal
DU-145 prostate = test system: DU-145 prostate
UACC-257 melanoma = test system: UACC-257 melanoma
A498 renal = test system: A498 renal
SNB-75 CNS = test system: SNB-75 CNS
U251 CNS = test system: U251 CNS
RPMI-8226 leukemia = test system: RPMI-8226 leukemia
HL-60(TB) leukemia = test system: HL-60(TB) leukemia
OVCAR-3 ovarian = test system: OVCAR-3 ovarian
LOX IMVI melanoma = test system: LOX IMVI melanoma
786-0 renal = test system: 786-0 renal
NCI/ADR-RES ovarian = test system: NCI/ADR-RES ovarian
KM12 colon = test system: KM12 colon
PC-3 prostate = test system: PC-3 prostate
SF-295 CNS = test system: SF-295 CNS
M14 melanoma = test system: M14 melanoma
SK-MEL-2 melanoma = test system: SK-MEL-2 melanoma
SN12C renal = test system: SN12C renal
SF-539 CNS = test system: SF-539 CNS

`NC(=Nc1ccc(Cl)cc1)c1ccccc1N` was tested, and the TGI (SK-MEL-28 melanoma) was > 100 µM, the TGI (SR leukemia) was > 100 µM and the TGI (SW-620 colon) was > 100 µM. For the same molecule, the TGI (IGROV1 ovarian) was > 100 µM, the TGI (HCT-116 colon) was > 100 µM and the TGI (HT29 colon) was > 100 µM. The TGI (UO-31 renal) was > 100 µM, the TGI (MDA-MB-231 breast) was > 100 µM and the TGI (MALME-3M melanoma) was > 100 µM. For the same molecule, the TGI (HCC-2998 colon) was > 100 µM, the TGI (UACC-62 melanoma) was > 100 µM and the TGI (HOP-92 NSCLC) was > 100 µM. For the same molecule, the TGI (MOLT-4 leukemia) was > 100 µM, the TGI (HOP-62 NSCLC) was > 100 µM and the TGI (MCF7 breast) was > 100 µM. The TGI (NCI-H522 lung) was > 100 µM, the TGI (SF-268 CNS) was > 100 µM and the TGI (NCI-H23 lung) was > 100 µM. The TGI (MDA-MB-435) was > 100 µM, the TGI (EKVX NSCLC) was > 100 µM and the TGI (SK-OV-3 ovarian) was > 100 µM. For the same molecule, the TGI (A549 NSCLC) was > 100 µM, the TGI (OVCAR-4 ovarian) was > 100 µM and the TGI (SK-MEL-5 melanoma) was > 100 µM. For the same molecule, the TGI (HCT-15 colon) was > 100 µM, the TGI (CAKI-1 renal) was > 100 µM and the TGI (SNB-19 CNS) was > 100 µM. The TGI (OVCAR-8 ovarian) was > 100 µM, the TGI (K-562 leukemia) was > 100 µM and the TGI (ACHN renal) was > 100 µM. For the same molecule, the TGI (NCI-H226 lung) was > 100 µM, the TGI (BT-549 breast) was > 100 µM and the TGI (HS 578T breast) was > 100 µM. The TGI (NCI-H460 lung) was > 100 µM, the TGI (CCRF-CEM leukemia) was > 100 µM and the TGI (MDA-N) was > 100 µM. The TGI (OVCAR-5 ovarian) was > 100 µM, the TGI (COLO 205 colon) was > 100 µM and the TGI (RXF 393 renal) was > 100 µM. For the same molecule, the TGI (TK-10 renal) was > 100 µM, the TGI (DU-145 prostate) was > 100 µM and the TGI (UACC-257 melanoma) was > 100 µM. For the same molecule, the TGI (A498 renal) was > 100 µM, the TGI (SNB-75 CNS) was > 100 µM and the TGI (U251 CNS) was > 100 µM. For the same molecule, the TGI (RPMI-8226 leukemia) was > 100 µM, the TGI (HL-60(TB) leukemia) was > 100 µM and the TGI (OVCAR-3 ovarian) was > 100 µM. The TGI (LOX IMVI melanoma) was > 100 µM, the TGI (786-0 renal) was > 100 µM and the TGI (NCI/ADR-RES ovarian) was > 100 µM. For the same molecule, the TGI (KM12 colon) was > 100 µM, the TGI (PC-3 prostate) was > 100 µM and the TGI (SF-295 CNS) was > 100 µM. The TGI (M14 melanoma) was > 100 µM.
With `CC(=O)Oc1ccc(/C=C/C(=O)NCC(NC(=O)/C=C/c2ccc(OC(C)=O)c(OC(C)=O)c2)C(=O)O)cc1OC(C)=O` (stereo not given) the TGI (SK-MEL-28 melanoma) was > 100 µM, the TGI (SR leukemia) was > 100 µM and the TGI (SW-620 colon) was > 100 µM. For the same molecule, the TGI (IGROV1 ovarian) was > 100 µM, the TGI (HCT-116 colon) was > 100 µM and the TGI (HT29 colon) was > 100 µM. For the same molecule, the TGI (UO-31 renal) was > 100 µM, the TGI (MDA-MB-231 breast) was > 100 µM and the TGI (MALME-3M melanoma) was > 100 µM. For the same molecule, the TGI (SK-MEL-2 melanoma) was > 100 µM, the TGI (HCC-2998 colon) was > 100 µM and the TGI (UACC-62 melanoma) was > 100 µM. The TGI (HOP-92 NSCLC) was > 100 µM, the TGI (MOLT-4 leukemia) was 50.1 µM and the TGI (HOP-62 NSCLC) was > 100 µM. For the same molecule, the TGI (MCF7 breast) was > 100 µM, the TGI (NCI-H522 lung) was > 100 µM and the TGI (SF-268 CNS) was > 100 µM. The TGI (NCI-H23 lung) was > 100 µM, the TGI (MDA-MB-435) was > 100 µM and the TGI (EKVX NSCLC) was > 100 µM. For the same molecule, the TGI (A549 NSCLC) was > 100 µM, the TGI (OVCAR-4 ovarian) was > 100 µM and the TGI (SK-MEL-5 melanoma) was > 100 µM. For the same molecule, the TGI (HCT-15 colon) was > 100 µM, the TGI (CAKI-1 renal) was > 100 µM and the TGI (SNB-19 CNS) was > 100 µM. The TGI (OVCAR-8 ovarian) was > 100 µM, the TGI (K-562 leukemia) was > 100 µM and the TGI (ACHN renal) was > 100 µM. For the same molecule, the TGI (NCI-H226 lung) was > 100 µM, the TGI (BT-549 breast) was > 100 µM and the TGI (HS 578T breast) was > 100 µM. For the same molecule, the TGI (NCI-H460 lung) was > 100 µM, the TGI (CCRF-CEM leukemia) was > 100 µM and the TGI (MDA-N) was > 100 µM. The TGI (OVCAR-5 ovarian) was > 100 µM, the TGI (COLO 205 colon) was > 100 µM and the TGI (RXF 393 renal) was > 100 µM. The TGI (TK-10 renal) was > 100 µM, the TGI (DU-145 prostate) was > 100 µM and the TGI (UACC-257 melanoma) was > 100 µM. For the same molecule, the TGI (A498 renal) was > 100 µM, the TGI (U251 CNS) was > 100 µM and the TGI (RPMI-8226 leukemia) was > 100 µM. The TGI (SN12C renal) was > 100 µM, the TGI (OVCAR-3 ovarian) was > 100 µM and the TGI (LOX IMVI melanoma) was > 100 µM. For the same molecule, the TGI (786-0 renal) was > 100 µM, the TGI (NCI/ADR-RES ovarian) was > 100 µM and the TGI (SF-539 CNS) was > 100 µM. The TGI (KM12 colon) was > 100 µM, the TGI (PC-3 prostate) was > 100 µM and the TGI (SF-295 CNS) was > 100 µM. The TGI (M14 melanoma) was > 100 µM.
`COc1ccc([C@H]2[C@H](C)C3=Nc4ccccc4CN32)cc1` was tested, and the TGI (SK-MEL-28 melanoma) was > 100 µM, the TGI (SR leukemia) was > 100 µM and the TGI (SW-620 colon) was > 100 µM. The TGI (IGROV1 ovarian) was > 100 µM, the TGI (HCT-116 colon) was > 100 µM and the TGI (HT29 colon) was > 100 µM. The TGI (UO-31 renal) was > 100 µM, the TGI (MDA-MB-231 breast) was > 100 µM and the TGI (MALME-3M melanoma) was > 100 µM. The TGI (SK-MEL-2 melanoma) was > 100 µM, the TGI (HCC-2998 colon) was > 100 µM and the TGI (UACC-62 melanoma) was > 100 µM. For the same molecule, the TGI (HOP-92 NSCLC) was > 100 µM, the TGI (MOLT-4 leukemia) was > 100 µM and the TGI (HOP-62 NSCLC) was > 100 µM. The TGI (MCF7 breast) was > 100 µM, the TGI (NCI-H522 lung) was > 100 µM and the TGI (SF-268 CNS) was > 100 µM. The TGI (NCI-H23 lung) was > 100 µM, the TGI (MDA-MB-435) was > 100 µM and the TGI (EKVX NSCLC) was > 100 µM. The TGI (A549 NSCLC) was > 100 µM, the TGI (OVCAR-4 ovarian) was > 100 µM and the TGI (SK-MEL-5 melanoma) was > 100 µM. The TGI (HCT-15 colon) was > 100 µM, the TGI (CAKI-1 renal) was > 100 µM and the TGI (SNB-19 CNS) was > 100 µM. For the same molecule, the TGI (OVCAR-8 ovarian) was > 100 µM, the TGI (K-562 leukemia) was > 100 µM and the TGI (ACHN renal) was > 100 µM. For the same molecule, the TGI (NCI-H226 lung) was > 100 µM, the TGI (BT-549 breast) was > 100 µM and the TGI (HS 578T breast) was > 100 µM. The TGI (NCI-H460 lung) was > 100 µM, the TGI (MDA-N) was 47.2 µM and the TGI (OVCAR-5 ovarian) was > 100 µM. The TGI (COLO 205 colon) was > 100 µM, the TGI (RXF 393 renal) was > 100 µM and the TGI (TK-10 renal) was > 100 µM. The TGI (DU-145 prostate) was > 100 µM, the TGI (UACC-257 melanoma) was > 100 µM and the TGI (A498 renal) was > 100 µM. The TGI (U251 CNS) was > 100 µM, the TGI (RPMI-8226 leukemia) was > 100 µM and the TGI (SN12C renal) was > 100 µM. For the same molecule, the TGI (HL-60(TB) leukemia) was > 100 µM, the TGI (OVCAR-3 ovarian) was > 100 µM and the TGI (LOX IMVI melanoma) was > 100 µM. For the same molecule, the TGI (786-0 renal) was > 100 µM, the TGI (NCI/ADR-RES ovarian) was > 100 µM and the TGI (SF-539 CNS) was > 100 µM. For the same molecule, the TGI (KM12 colon) was > 100 µM, the TGI (PC-3 prostate) was > 100 µM and the TGI (SF-295 CNS) was > 100 µM. For the same molecule, the TGI (M14 melanoma) was > 100 µM.
